From ChEMBL document CHEMBL1949618, “Synthesis and properties of mRNA cap analogs containing imidodiphosphate moiety--fairly mimicking natural cap structure, yet resistant to enzymatic hydrolysis” (Bioorg Med Chem, 2012) come the findings set out here.

The structures appear in SMILES notation. pIC50: −log10 of the molar value. Calls of active or inactive are those of the source. The rule behind the calls is not given here. Bounds are passed on as bounds.

In data set [1] the test system is DcpS. Put plainly: (§1) Stability of the compound assessed as human recombinant DcpS -mediated hydrolysis after 90 mins by HPLC. It is filed as ADME. The note with it: human, recombinant DcpS; read-out: Drug degradation.
Data set [2] can be described thus: Chemical stability of the compound in aqueous buffer at pH 8 assessed as decomposition at 5 mM up to 2 hrs by RP-HPLC. The class given is physicochemical. To be noted: pH 8, 2 h, 5000 µM.
The target of data set [3] is Eukaryotic translation initiation factor 4E (Homo sapiens) (UniProt P06730). In words: Binding affinity to recombinant eIF4E by fluorescence quenching titration method.
Chain of Eukaryotic translation initiation factor 4E (Homo sapiens) (P06730 whole entry): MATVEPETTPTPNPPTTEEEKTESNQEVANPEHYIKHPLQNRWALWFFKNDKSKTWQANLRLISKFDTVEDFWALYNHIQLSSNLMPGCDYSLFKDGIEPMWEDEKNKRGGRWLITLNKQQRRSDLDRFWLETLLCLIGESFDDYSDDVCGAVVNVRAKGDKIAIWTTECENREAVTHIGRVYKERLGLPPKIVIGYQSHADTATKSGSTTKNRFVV
For data set [4], the target named is T1, Eukaryotic translation initiation factor 4E (Oryctolagus cuniculus, UniProt P29338). Put plainly: Inhibition of eIF4E-mediated mRNA translation in rabbit reticulocyte lysate pre-incubated for 60 mins prior to mRNA addition by luciferase reporter gene assay.
T1 sequence (P29338 whole entry): as the sequence (P06730 whole entry) above, with T16P, T17A, E174D counted along it
Data set [5] deals with T1, Eukaryotic translation initiation factor 4E. Put plainly: Inhibition of eIF4E-mediated mRNA translation in rabbit reticulocyte lysate by luciferase reporter gene assay.
Data set [6] is described as follows: Chemical stability of the compound in aqueous buffer at pH 6 assessed as decomposition at 5 mM after 24 hrs by RP-HPLC. The class given is physicochemical. To be noted: read-out: Drug degradation.
Data set [7] in a line: Chemical stability of the compound in aqueous buffer at pH 8 assessed as decomposition at 5 mM after 24 hrs by RP-HPLC. It is filed as physicochemical. The note with it: read-out: Drug degradation.
Data set [8] is described as follows: Chemical stability of the compound in aqueous buffer at pH 6 assessed as decomposition at 5 mM up to 2 hrs by RP-HPLC. The class given is physicochemical. The note with it: pH 6, 2 h, 5000 µM.
Data set [9] is described as follows: Stability of the compound at -20 degreeC after 12 months. The class given is physicochemical. To be noted: 8766 h.
Data set [10] in a line: Chemical stability of the compound in aqueous buffer at pH 2 assessed as decomposition at 5 mM up to 2 hrs by RP-HPLC. The note with it: pH 2, 2 h, 5000 µM. The class given is physicochemical.
Data set [11] is described as follows: Chemical stability of the compound in aqueous buffer at pH 2 assessed as decomposition at 5 mM after 24 hrs by RP-HPLC. The note with it: read-out: Drug degradation. It is filed as physicochemical.
The nature of data set [12]: as §1. The class given is ADME. The note with it: 1.5 h.
The target of data set [13] is Eukaryotic translation initiation factor 4E (Oryctolagus cuniculus) (UniProt P29338). Put plainly: Inhibition of eIF4E-mediated mRNA translation in rabbit reticulocyte lysate assessed as translation efficiency after 60 mins by luciferase reporter gene assay relative to m7GpppG-capped mRNA.
Chain of Eukaryotic translation initiation factor 4E (Oryctolagus cuniculus) (P29338 whole entry): as the sequence (P06730 whole entry) above, with T16P, T17A, E174D counted along it
Data set [14] deals with T2, m7GpppX diphosphatase (Homo sapiens) (UniProt Q96C86).
T2 sequence (whole entry): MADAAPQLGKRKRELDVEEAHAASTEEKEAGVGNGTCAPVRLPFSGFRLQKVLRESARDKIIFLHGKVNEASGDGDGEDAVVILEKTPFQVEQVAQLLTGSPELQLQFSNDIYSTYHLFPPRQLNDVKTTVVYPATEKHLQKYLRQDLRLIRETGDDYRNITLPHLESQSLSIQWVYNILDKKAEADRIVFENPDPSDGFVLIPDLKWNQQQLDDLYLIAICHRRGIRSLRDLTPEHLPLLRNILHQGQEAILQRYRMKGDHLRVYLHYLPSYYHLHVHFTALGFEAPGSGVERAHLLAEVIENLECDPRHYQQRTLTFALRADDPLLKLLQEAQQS
Description: Binding affinity to human recombinant DcpS by fluorescence quenching titration method

For data set [15], the species on record is Homo sapiens. Put plainly: Selectivity ratio of Ka for human recombinant DcpS to Ka for eIF4E.
The test system of data set [16] is Nucleic Acid. Put plainly: Capping efficiency in mRNA after 60 mins by gel electrophoresis in the presence of SP6 polymerase. It is filed as nucleic-acid assay.
Data set [17] can be described thus: Stability of the compound assessed as human recombinant DcpS -mediated hydrolysis after 2 hrs by HPLC. It is filed as ADME.

With `C[n+]1cn([C@@H]2O[C@H](COP(=O)([O-])OP(=O)([O-])NP(=O)([O-])OC[C@H]3O[C@@H](n4cnc5c(=O)[nH]c(N)nc54)[C@H](O)[C@@H]3O)[C@@H](O)[C@H]2O)c2nc(N)[nH]c(=O)c21.[Na+].[Na+]`, in data set [1], the metabolised at 1.5 h came to 20%. Besides, the Drug degradation result in [2], in [8] and in [10] was “Not Active” in each case. The Ka in data set [3] is 10.1 µM⁻¹. Moreover, the negative logarithm of the IC50 (pIC50) was 5.22 in [4] and 5.07 in data set [5]. In addition, the degraded at 24 h, 5000 µM in [6], in [7] and in [11] was below 10% each time. The Stability result in data set [9] is on record as “Stable”.
As for `CO[C@@H]1[C@H](O)[C@@H](COP(=O)([O-])OP(=O)([O-])NP(=O)([O-])OC[C@H]2O[C@@H](n3cnc4c(=O)[nH]c(N)nc43)[C@H](O)[C@@H]2O)O[C@H]1n1c[n+](C)c2c(=O)[nH]c(N)nc21.[Na+].[Na+]`, the Drug degradation entry in data set [12], in [2], in data set [8] and in data set [10] was “Not Active” each time. Also, the fold change (FC) in data set [13] came out at 1.11. In addition, the Ka in data set [3] is 10.4 µM⁻¹; in data set [14] it was 12.8 µM⁻¹. The degraded at 24 h, 5000 µM in data set [6], in [7] and in data set [11] was below 10% each time. The Ratio in [15] amounted to 1.2. The Stability entry in data set [9] is “Stable”. The outcome in [16] was Active.
For the molecule `CO[C@@H]1[C@H](O)[C@@H](COP(=O)([O-])NP(=O)([O-])OP(=O)([O-])OC[C@H]2O[C@@H](n3cnc4c(=O)[nH]c(N)nc43)[C@H](O)[C@@H]2O)O[C@H]1n1c[n+](C)c2c(=O)[nH]c(N)nc21.[Na+].[Na+]`, the Drug degradation entry in [2], in [8], in data set [17] and in data set [10] was “Not Active” in each case. For the same molecule, in [13], the fold change (FC) was found to be 1.13. Further, the Ka in [3] was 18.5 µM⁻¹; in [14], 33.6 µM⁻¹. The degraded at 24 h, 5000 µM in data set [6], in data set [7] and in data set [11] was below 10% in each case. Besides, in data set [15], the Ratio was 1.8. Moreover, the Stability result in data set [9] was “Stable”. In addition, the outcome in data set [16] was Active.
